Measurements: ChEMBL document CHEMBL4507301 (2021)

Columns and labels:
[1] = molecular target: Alpha-1A adrenergic receptor (Homo sapiens, UniProt P35348)
[2] = molecular target: Alpha-1B adrenergic receptor (Homo sapiens, UniProt P35368); test: Binding assay (ADRA1B)
[3] = molecular target: T1, Alpha-2A adrenergic receptor (Homo sapiens) (UniProt P08913); test: alpha2A Eurofins-Panlabs ligand profiling; details: Compound concentration 10.0 uM
T1 sequence (whole entry): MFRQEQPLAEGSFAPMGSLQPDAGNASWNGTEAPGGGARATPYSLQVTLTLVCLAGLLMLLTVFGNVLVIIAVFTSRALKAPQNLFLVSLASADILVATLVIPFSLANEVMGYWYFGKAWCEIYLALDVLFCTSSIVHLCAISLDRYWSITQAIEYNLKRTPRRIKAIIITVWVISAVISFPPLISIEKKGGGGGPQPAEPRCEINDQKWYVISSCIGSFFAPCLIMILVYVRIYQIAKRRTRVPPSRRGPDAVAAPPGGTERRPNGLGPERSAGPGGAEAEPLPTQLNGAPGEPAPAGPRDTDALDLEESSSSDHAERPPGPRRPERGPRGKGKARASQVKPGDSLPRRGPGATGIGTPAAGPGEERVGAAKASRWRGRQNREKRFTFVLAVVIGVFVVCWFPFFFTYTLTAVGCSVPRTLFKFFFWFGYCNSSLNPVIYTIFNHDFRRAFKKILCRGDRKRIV

[4] = molecular target: Beta-3 adrenergic receptor (Homo sapiens) (UniProt P13945); test: beta3 Eurofins-Panlabs ligand profiling; details: Compound concentration 10.0 uM
[5] = molecular target: 5-hydroxytryptamine receptor 5A (Homo sapiens) (UniProt P47898); details: Compound concentration 10.0 uM
[6] = molecular target: 5-hydroxytryptamine receptor 3A (Homo sapiens) (UniProt P46098); details: Compound concentration 10.0 uM
5-hydroxytryptamine receptor 3A (Homo sapiens), sequence (P46098 whole entry): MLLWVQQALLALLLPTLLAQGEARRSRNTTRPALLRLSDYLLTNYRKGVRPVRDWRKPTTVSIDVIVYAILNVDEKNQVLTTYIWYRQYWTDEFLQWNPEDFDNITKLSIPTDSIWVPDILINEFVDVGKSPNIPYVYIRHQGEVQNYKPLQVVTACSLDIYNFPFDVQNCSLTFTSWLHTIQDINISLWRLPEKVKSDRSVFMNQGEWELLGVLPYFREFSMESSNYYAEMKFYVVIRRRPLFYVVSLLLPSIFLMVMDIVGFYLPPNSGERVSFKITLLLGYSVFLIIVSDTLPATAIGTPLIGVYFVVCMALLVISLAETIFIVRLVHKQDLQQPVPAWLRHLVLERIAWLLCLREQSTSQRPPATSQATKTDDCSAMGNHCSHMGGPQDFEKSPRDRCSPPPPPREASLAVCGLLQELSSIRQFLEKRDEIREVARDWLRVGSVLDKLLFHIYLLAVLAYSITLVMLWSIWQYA

Alpha-1A adrenergic receptor, sequence (P35348 whole entry): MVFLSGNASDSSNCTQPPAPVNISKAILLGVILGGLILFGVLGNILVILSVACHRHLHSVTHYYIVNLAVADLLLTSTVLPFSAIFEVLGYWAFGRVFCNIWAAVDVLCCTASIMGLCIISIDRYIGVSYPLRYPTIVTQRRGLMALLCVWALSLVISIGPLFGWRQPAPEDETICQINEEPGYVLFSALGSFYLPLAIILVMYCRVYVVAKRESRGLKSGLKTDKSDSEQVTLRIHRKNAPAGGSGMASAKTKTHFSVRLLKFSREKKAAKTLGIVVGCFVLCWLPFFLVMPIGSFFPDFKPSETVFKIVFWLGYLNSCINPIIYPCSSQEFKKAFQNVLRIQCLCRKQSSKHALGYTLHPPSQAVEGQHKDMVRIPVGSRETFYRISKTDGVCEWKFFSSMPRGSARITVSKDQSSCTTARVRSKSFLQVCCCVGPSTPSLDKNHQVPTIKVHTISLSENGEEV
Beta-3 adrenergic receptor (Homo sapiens), sequence (P13945 whole entry, looked up): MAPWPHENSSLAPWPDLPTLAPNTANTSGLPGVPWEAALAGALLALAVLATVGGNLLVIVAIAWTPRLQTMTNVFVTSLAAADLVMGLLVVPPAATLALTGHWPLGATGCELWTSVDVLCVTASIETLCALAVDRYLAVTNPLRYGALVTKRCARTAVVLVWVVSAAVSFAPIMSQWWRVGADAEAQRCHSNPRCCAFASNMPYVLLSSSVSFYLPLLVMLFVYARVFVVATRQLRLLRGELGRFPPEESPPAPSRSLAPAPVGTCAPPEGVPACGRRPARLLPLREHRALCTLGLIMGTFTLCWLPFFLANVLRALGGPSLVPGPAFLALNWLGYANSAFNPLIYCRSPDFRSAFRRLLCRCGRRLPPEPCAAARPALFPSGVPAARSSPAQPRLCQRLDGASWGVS
Alpha-1B adrenergic receptor, sequence (P35368 whole entry): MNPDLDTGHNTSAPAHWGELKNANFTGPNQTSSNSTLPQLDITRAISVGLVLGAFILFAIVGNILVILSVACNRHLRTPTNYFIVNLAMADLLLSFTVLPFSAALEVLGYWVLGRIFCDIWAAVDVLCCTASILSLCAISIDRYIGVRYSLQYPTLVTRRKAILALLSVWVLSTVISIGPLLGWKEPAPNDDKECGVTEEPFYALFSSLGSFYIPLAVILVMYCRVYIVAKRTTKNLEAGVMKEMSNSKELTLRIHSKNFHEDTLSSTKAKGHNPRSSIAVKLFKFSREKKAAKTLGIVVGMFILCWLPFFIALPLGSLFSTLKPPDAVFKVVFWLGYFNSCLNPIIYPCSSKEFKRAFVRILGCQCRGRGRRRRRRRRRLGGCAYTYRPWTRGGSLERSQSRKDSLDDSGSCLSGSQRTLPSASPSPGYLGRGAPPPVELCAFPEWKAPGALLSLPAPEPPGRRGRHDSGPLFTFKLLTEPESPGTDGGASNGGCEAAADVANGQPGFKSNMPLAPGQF
5-hydroxytryptamine receptor 5A (Homo sapiens), sequence (P47898 whole entry): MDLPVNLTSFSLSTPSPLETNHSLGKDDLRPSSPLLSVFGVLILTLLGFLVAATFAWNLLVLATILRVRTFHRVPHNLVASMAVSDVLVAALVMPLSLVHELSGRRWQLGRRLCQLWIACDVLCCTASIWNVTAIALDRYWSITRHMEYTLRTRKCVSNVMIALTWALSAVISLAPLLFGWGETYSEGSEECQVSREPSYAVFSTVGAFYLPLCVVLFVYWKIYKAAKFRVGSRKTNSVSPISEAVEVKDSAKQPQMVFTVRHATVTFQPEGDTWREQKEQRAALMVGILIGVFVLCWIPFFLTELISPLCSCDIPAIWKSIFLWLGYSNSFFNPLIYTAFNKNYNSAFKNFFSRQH

With `C[C@@H](c1cccc(C#N)c1)n1cc(Cl)cc(C(N)=O)c1=N` [(S)-9s] the Ki [1] was > 2700 nM (not active) and the Ki [2] was > 1200 nM (not active).

`C[C@H](c1cccc(C#N)c1)n1cc(Cl)cc(C(N)=O)c1=N` [(R)-9s] showed an inhibition [3] of 5%, an inhibition [4] of -6% and an inhibition [5] of 0.88%. For the same compound, the inhibition [6] was -5.97%.
